These results are taken from patent publication US11015061B2, “Phthalocyanine-based compound and uses of same” (YAMAMOTO CHEMICALS, INC., priority 2017, dated 2021).

What all share (type): physicochemical
Data set [1] is described as follows: Absorption spectrum of toluene solution (maximum absorption, gram absorption coefficient). Conditions: for gram absorption coefficient: at maximum absorption. The protocol: A toluene solution of the compound obtained in this way had maximum absorption at 734.0 nm, and the gram absorption coefficient thereof was 1.21×10^5 mL/g·cm. The absorption spectrum chart thereof is illustrated in FIG. 1.

Data set [2] is described as follows: Visible light transmittance of chloroform solution. As to conditions: spectrum converted to transmittance 10% at near-infrared maximum absorption wavelength. The protocol:
The visible light transmittance of the phthalocyanine-based compound of the present invention and the comparative example compounds was measured by the following measurement method.
Each of the phthalocyanine compounds ([…]) and approximately 90 mL of chloroform were put into a 100 mL volumetric flask, and the solution in the flask was irradiated with ultrasonic waves for 30 minutes and left to stand for 2 hours at room temperature. Then, chloroform was added thereto such that the meniscus of the solution matched up with the calibration mark on the volumetric flask, thereby preparing a 10 mg/L phthalocyanine solution. The prepared solution was put into a 1 cm×1 cm cell made of PYREX (registered trademark), and the absorption spectrum thereof was measured using a spectrophotometer (produced by Hitachi, Ltd.: Spectrophotometer U-3500).
The absorption spectrum measured as above was converted such that the absorbance became 1.0, that is, the transmittance became 10% at the maximum absorption wavelength in a near-infrared range, thereby obtaining a transmission spectrum. […] At 460 nm, the transmittance of the compound of the present invention was approximately the same as the transmittance of Comparative Examples 1 and 2.

Data set [3] can be described thus: Tts (total solar transmittance) of heat ray shielding film. As to conditions: heat ray shielding film (5 g compound, 50 g acryl resin LP-45M, 2.5 μm on PET) on 3 mm glass plate; JIS R3106. The source says:
The phthalocyanine compound (Specific Example (1)-30) produced in Example 1 (5 g), 50 g of an acryl resin LP-45M (trade name, produced by Soken Chemical & Engineering Co., Ltd.), 20 g of methyl ethyl ketone, and 20 g of toluene were mixed and stirred together, thereby producing a resin composition.
As a transparent substrate, a polyethylene terephthalate film (PET film) having a thickness of 100 μm was bar-coated with the resin composition such that the thickness thereof became 2.5 μm, and then the applied resin composition was dried for 3 minutes at 100° C. Furthermore, the other surface of the PET film (surface not being coated with the resin composition) was bar-coated with a transparent acryl copolymer-based pressure sensitive adhesive such that the thickness thereof became 20 μm, and the applied pressure sensitive adhesive was dried and cured for 3 minutes at 100° C. Thereafter, a release film was bonded to the surface of the pressure sensitive adhesive, thereby producing a heat ray shielding film.
(§1) In the evaluation test, the release film was peeled from the produced heat ray shielding film, then the heat ray shielding film was compressed on a 5 cm×5 cm×3 mm (thickness) glass plate, and a test piece created in this way was used.
By using U-3500 type recording spectrophotometer produced by Hitachi, Ltd. as a measurement instrument, Tts of the laminated glass sample was measured based on JIS R3106 “Testing method for transmittance, reflectance, emissivity, and solar heat gain coefficient of flat glasses”.
Tts (Total solar energy transmitted through a glazing) represents a total solar transmittance.

The nature of data set [4]: Light fastness test of heat ray shielding film. Conditions: xenon light 200 hours at 550 W/h, absorbance integrated 400 to 900 nm. The protocol: as §1
For a light fastness test, the absorption spectrum of the test piece was measured using a spectrophotometer (produced by Hitachi, Ltd.: Spectrophotometer U-3500) and adopted as a spectrum before light fastness test. Then, the test piece used for measuring the spectrum before test was irradiated with light for 200 hours at 550 W/h by using a xenon light fastness tester (produced by Toyo Seiki Seisaku-sho, Ltd.: SUNTEST XLS+). The absorption spectrum of the test piece irradiated with light was measured using the spectrophotometer and adopted as a spectrum after light fastness test.
(§2) In each of the spectra measured as above before and after the light fastness⋅heat resistance test, the values of absorbance within a range of 400 to 900 nm were integrated, and a difference between the integrated value before the light fastness⋅heat resistance test and the integrated value after the light fastness⋅heat resistance test was calculated.
(§3) The difference ΔE between the absorbance before the light fastness⋅heat resistance test and the absorbance after the light fastness⋅heat resistance test is expressed by the following equation. ΔE (%)={E(400 to 900 nm in E1)−E(400 to 900 nm in E2)}/E(400 to 900 nm in E1)×100
(§4) E1 represents the spectrum before test, E2 represents the spectrum after test, and Σ represents integration of the values of absorbance.
(§5) The larger the value of ΔE, the greater the spectrum change between before and after the light fastness⋅heat resistance test.

Data set [5] is described as follows: Heat resistance test of heat ray shielding film. Conditions: 200 hours at 100° C., absorbance integrated 400 to 900 nm. The protocol: as §1
For a heat resistance test, the test piece used for measuring the spectrum before test as described above was treated with heat for 200 hours at a temperature of 100° C. in a thermostat (produced by Yamato Scientific co., ltd.: IG400). By using the spectrophotometer, the absorption spectrum of the heat-treated test piece was measured and adopted as a spectrum after heat resistance test.
as §2, §3, §4, §5

A short description of data set [6]: Tts of laminated glass sample. As to conditions: 0.76 mm PVB interlayer with 0.013 g compound per 100 g resin, JIS R3106. The protocol: (§6) The phthalocyanine-based compound (Specific Example (1)-30) produced in Example 1 (0.013 g) was dissolved in 40 g of triethylene glycol-di-2-ethylhexanoate as an organic ester plasticizer. The obtained solution was added to 100 g of a polyvinyl butyral resin (trade name: BH-3, produced by SEKISUI CHEMICAL CO., LTD.), thoroughly melted and kneaded using a mixing roll, and extruded using an extruder, thereby obtaining an interlayer having a thickness of 0.76 mm.
(§7) The interlayer was cut in size of 100 mm×100 mm, interposed between heat ray absorbing glass plates (100 mm (length)×100 mm (width)×2.0 mm (thickness)) prepared based on JIS R3208, put into a rubber bag, and deaerated for 20 minutes at a degree of vacuum of 2.6 kPa. Then, the deaerated laminate was moved into an oven and further hold for 30 minutes at 90° C. to vacuum press. Thereafter, the laminate was compressed for 20 minutes in an autoclave under the condition of a temperature of 130° C. and a pressure of 1.3 MPa, thereby obtaining a laminated glass sample.
By using U-3500 type recording spectrophotometer produced by Hitachi, Ltd. as a measurement instrument, Tts of the laminated glass samples was measured based on JIS R3106 “Testing method for transmittance, reflectance, emissivity, and solar heat gain coefficient of flat glasses”.

Data set [7] in a line: Visible light transmittance of laminated glass sample. Conditions: 380 to 780 nm, JIS R3212. The protocol: as §6, §7
By using U-3500 type recording spectrophotometer produced by Hitachi, Ltd. as a measurement instrument, the visible light transmittance of the laminated glass samples at a wavelength of 380 to 780 nm was measured based on JIS R3212 “Test methods of safety glazing materials for road vehicles”.

Turning to `COc1cccc(OCCCCc2ccc(CCCCOc3cccc(OC)c3)c3c2-c2nc-3nc3[n-]c(nc4nc(nc5[n-]c(n2)c2c(CCCCOc6cccc(OC)c6)ccc(CCCCOc6cccc(OC)c6)c52)-c2c(CCCCOc5cccc(OC)c5)ccc(CCCCOc5cccc(OC)c5)c2-4)c2c(CCCCOc4cccc(OC)c4)ccc(CCCCOc4cccc(OC)c4)c32)c1.[Cu+2]` [Specific Example (1)-40], in data set [1], the maximum absorption was 706.5 nm and the gram absorption coefficient is 67800 mL/g/cm. For the same molecule, in data set [2], the “Transmittance (%) 460 nm” value was 99.4% and the “Transmittance (%) 610 nm” value was 88.0%. In addition, the Tts in data set [3] came to 85.9%. The “ΔE (%) Light fastness” value in data set [4] worked out at 2%. The “ΔE (%) Heat resistance” value in data set [5] is 3%. This molecule also showed a Tts in data set [6] of 52%. The Visible light transmittance in data set [7] is 77.9%.
For the molecule `COc1cccc(OC)c1OCCCCc1ccc(CCCCOc2c(OC)cccc2OC)c2c1-c1nc-2nc2[n-]c(nc3nc(nc4[n-]c(n1)c1c(CCCCOc5c(OC)cccc5OC)ccc(CCCCOc5c(OC)cccc5OC)c41)-c1c(CCCCOc4c(OC)cccc4OC)ccc(CCCCOc4c(OC)cccc4OC)c1-3)c1c(CCCCOc3c(OC)cccc3OC)ccc(CCCCOc3c(OC)cccc3OC)c21.[Cu+2]` [Specific Example (1)-45], in data set [1], the maximum absorption is reported as 706.5 nm and the gram absorption coefficient was 60100 mL/g/cm. Besides, in data set [2], the “Transmittance (%) 460 nm” value was found to be 99.9% and the “Transmittance (%) 610 nm” value was found to be 89.5%. The Tts in data set [3] was found to be 85.5%. Further, in data set [4], the “ΔE (%) Light fastness” value was found to be 2%. Moreover, the “ΔE (%) Heat resistance” value in data set [5] is recorded as 3%. In addition, in data set [6], the Tts came to 52.5%. Moreover, in data set [7], the Visible light transmittance was 77.4%.
In data set [1], `[O]=[V+2].c1ccc(OCCOCCCCc2ccc(CCCCOCCOc3ccccc3)c3c2-c2nc-3nc3[n-]c(nc4nc(nc5[n-]c(n2)c2c(CCCCOCCOc6ccccc6)ccc(CCCCOCCOc6ccccc6)c52)-c2c(CCCCOCCOc5ccccc5)ccc(CCCCOCCOc5ccccc5)c2-4)c2c(CCCCOCCOc4ccccc4)ccc(CCCCOCCOc4ccccc4)c32)cc1` [Specific Example (1)-38] gave a maximum absorption of 735.0 nm and a gram absorption coefficient of 71600 mL/g/cm. Also, in data set [2], the “Transmittance (%) 460 nm” value was determined as 98.3% and the “Transmittance (%) 610 nm” value was determined as 88.6%. For the same molecule, the Tts in data set [3] was determined as 85.8%. Moreover, the “ΔE (%) Light fastness” value in data set [4] is given as 5%. Moreover, the “ΔE (%) Heat resistance” value in data set [5] is 3%. The Tts in data set [6] worked out at 51.7%. In data set [7], this molecule yielded a Visible light transmittance of 77.8%.
Take `COc1cccc(OCCCCc2ccc(CCCCOc3cccc(OC)c3)c3c2-c2nc-3nc3[n-]c(nc4nc(nc5[n-]c(n2)c2c(CCCCOc6cccc(OC)c6)ccc(CCCCOc6cccc(OC)c6)c52)-c2c(CCCCOc5cccc(OC)c5)ccc(CCCCOc5cccc(OC)c5)c2-4)c2c(CCCCOc4cccc(OC)c4)ccc(CCCCOc4cccc(OC)c4)c32)c1.[O]=[V+2]` [Specific Example (1)-39]: in data set [1], the maximum absorption was 735.5 nm and the gram absorption coefficient is 74000 mL/g/cm. Also, in data set [2], the “Transmittance (%) 460 nm” value is on record as 97.7% and the “Transmittance (%) 610 nm” value was 88.1%. In data set [3], the Tts is 85.9%. Besides, the “ΔE (%) Light fastness” value in data set [4] is given as 4%. Besides, the “ΔE (%) Heat resistance” value in data set [5] is on record as 3%. In data set [6], this molecule displayed a Tts of 52.7%. Besides, the Visible light transmittance in data set [7] was found to be 78%.
In data set [1], `COCc1ccc(COC)c2c1-c1nc-2nc2[n-]c(nc3nc(nc4[n-]c(n1)c1c(COC)ccc(COC)c41)-c1c(COC)ccc(COC)c1-3)c1c(COC)ccc(COC)c21.[O]=[V+2]` [Comparative Example Compound (a), reference compound] displayed a maximum absorption of 733.0 nm and a gram absorption coefficient of 130000 mL/g/cm. In data set [2], the “Transmittance (%) 460 nm” value amounted to 97.9% and the “Transmittance (%) 610 nm” value came out at 86.6%. The molecule further came in with a Tts in data set [3] of 89.5%. Further, the “ΔE (%) Light fastness” value in data set [4] was found to be 33%. For the same molecule, the “ΔE (%) Heat resistance” value in data set [5] came to 31%. Also, the Tts in data set [6] amounted to 53.6%. The Visible light transmittance in data set [7] was found to be 75%.
In data set [1], `CCOCCCCc1ccc(CCCCOCC)c2c1-c1nc-2nc2[n-]c(nc3nc(nc4[n-]c(n1)c1c(CCCCOCC)ccc(CCCCOCC)c41)-c1c(CCCCOCC)ccc(CCCCOCC)c1-3)c1c(CCCCOCC)ccc(CCCCOCC)c21.[O]=[V+2]` [Specific Example (1)-33] gave a maximum absorption of 734.0 nm and a gram absorption coefficient of 119000 mL/g/cm. Also, in data set [2], the “Transmittance (%) 460 nm” value was 98.1% and the “Transmittance (%) 610 nm” value was 88.3%. This molecule also gave a Tts in data set [3] of 85.8%. For the same molecule, in data set [4], the “ΔE (%) Light fastness” value was found to be 3%. The “ΔE (%) Heat resistance” value in data set [5] is on record as 2%. Also, the Tts in data set [6] was 51.5%. The Visible light transmittance in data set [7] turned out to be 77.5%.
In the case of `CC(C)(C)c1ccc(OCCCCc2ccc(CCCCOc3ccc(C(C)(C)C)cc3)c3c2-c2nc-3nc3[n-]c(nc4nc(nc5[n-]c(n2)c2c(CCCCOc6ccc(C(C)(C)C)cc6)ccc(CCCCOc6ccc(C(C)(C)C)cc6)c52)-c2c(CCCCOc5ccc(C(C)(C)C)cc5)ccc(CCCCOc5ccc(C(C)(C)C)cc5)c2-4)c2c(CCCCOc4ccc(C(C)(C)C)cc4)ccc(CCCCOc4ccc(C(C)(C)C)cc4)c32)cc1.[O]=[V+2]` [Specific Example (1)-42], in data set [1], the maximum absorption is 734.5 nm and the gram absorption coefficient was 71000 mL/g/cm. Moreover, in data set [2], the “Transmittance (%) 460 nm” value was 97.9% and the “Transmittance (%) 610 nm” value is recorded as 88.5%. The molecule further returned a Tts in data set [3] of 86%. For the same molecule, the “ΔE (%) Light fastness” value in data set [4] amounted to 4%. Also, the “ΔE (%) Heat resistance” value in data set [5] was 4%. The molecule also had a Tts in data set [6] of 52.3%. The Visible light transmittance in data set [7] came to 77.7%.
